Laboratory results published in patent US20250237649A1 (priority 2021, published 2025).
Like-named read-outs stand apart in the source and are kept apart here. Residues, ends and D or L forms follow the SMILES beside them. *: point of attachment. Dabcyl = CN(C)c1ccc(N=Nc2ccc(C(=O)*)cc2)cc1; EDANS = O=S(=O)(O)c1cccc2c(NCCN*)cccc12; pNA = O=[N+]([O-])c1ccc(N*)cc1; Cbz = O=C(OCc1ccccc1)*

Key:
Hip1 [1] = target: T1, Hip1 (Mycobacterium tuberculosis, UniProt P9WHR3); assay: Inhibition of Hip1 (Ki determination); format: biochemical
T1 sequence (P9WHR3 31-520): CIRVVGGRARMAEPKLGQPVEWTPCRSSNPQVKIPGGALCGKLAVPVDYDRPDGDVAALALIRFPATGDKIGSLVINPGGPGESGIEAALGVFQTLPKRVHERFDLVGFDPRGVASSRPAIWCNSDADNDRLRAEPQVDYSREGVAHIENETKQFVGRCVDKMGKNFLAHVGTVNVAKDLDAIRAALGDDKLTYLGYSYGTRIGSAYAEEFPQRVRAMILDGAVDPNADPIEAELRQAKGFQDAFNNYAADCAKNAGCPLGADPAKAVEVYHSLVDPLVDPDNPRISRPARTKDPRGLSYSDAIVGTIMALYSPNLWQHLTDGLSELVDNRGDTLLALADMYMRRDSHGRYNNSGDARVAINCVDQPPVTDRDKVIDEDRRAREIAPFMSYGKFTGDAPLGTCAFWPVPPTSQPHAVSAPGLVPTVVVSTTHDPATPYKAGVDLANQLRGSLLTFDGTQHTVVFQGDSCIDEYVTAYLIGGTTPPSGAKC

Hip1 [2] = target: T1, Hip1; assay: Km determination of Hip1 substrates (Michaelis-Menten); format: biochemical
[3] = read-out: Km (fluorescent substrate)

Row | Compound | Km (Hip1 [2]; [3]) [µM] | further results
1 | COC(=O)C(=O)[C@H](C[C@@H]1CCNC1=O)NC(=O)[C@H](CCCCN)NC(=O)[C@H](Cc1ccccc1)NC(=O)OCc1ccccc1 [Inhibitor Compound 2, Cbz-Phe-Lys-Glnlac-CO—CO2Me] | – | Ki (Hip1 [1]): 0.117 ± 0.015 nM
2 | CC(C)C[C@H](NC(=O)[C@H](CCCCN)NC(=O)[C@H](Cc1ccccc1)NC(=O)OCc1ccccc1)C(=O)Nc1ccc([N+](=O)[O-])cc1 [Cbz-Phe-Lys-Leu-pNa] (Cbz-Phe-Lys-Leu-pNA) | – | Km (Hip1 [2]; three independent determinations averaged, read-out: Km (chromogenic substrate)): 0.421 µM
3 | CC(C)C[C@H](NC(=O)CNC(=O)[C@H](CCCNC(=N)N)NC(=O)[C@H](CCCNC(=N)N)NC(=O)[C@H](C)NC(=O)[C@H](CCC(=O)O)NC(=O)c1ccc(N=Nc2ccc(N(C)C)cc2)cc1)C(=O)N[C@@H](CCC(=O)NCCNc1cccc2c(S(=O)(=O)O)cccc12)C(=O)N[C@@H](CCCNC(=N)N)C(=O)O [UFNG1] (Dabcyl-EARRGLE(EDANS)R-OH) | 17.5 | –
4 | CC(C)C[C@H](NC(=O)CNC(=O)[C@H](CCC(N)=O)NC(=O)[C@H](CCCCN)NC(=O)[C@H](Cc1ccccc1)NC(=O)[C@H](CCC(=O)O)NC(=O)c1ccc(N=Nc2ccc(N(C)C)cc2)cc1)C(=O)N[C@@H](CCC(=O)NCCNc1cccc2c(S(=O)(=O)O)cccc12)C(=O)N[C@@H](CCCNC(=N)N)C(=O)O [UFNG2, Dabcyl-Glu-Phe-Lys-Gln-Gly-Leu-Glu-(EDANS)-Arg] (Dabcyl-EFKQGLE(EDANS)R-OH) | 37.6 | –
